The numbers were not newly measured in patent US5550124A, “Use of peripheral-type benzodiazpine sites for treatment of CNS trauma or disease” (priority 1991, dated 1996), which cites them from elsewhere.

“Also recorded” adds a separate entry of the source. Read-outs that look alike come from different tables or passages of the source.

Data set [1] concerns NMDA receptor. Particulars: in vivo; cited from earlier work.
In data set [2] the test system is NMDA receptor. The following applies: rats; cited from earlier work.
For data set [3], the system named is NMDA receptor. The following applies: cats; cited from earlier work.
For data set [4] the following is noted: dogs; cited from earlier work.
The conditions of data set [5]: in vivo; cited from earlier work.
The conditions of data set [6]: in vivo; cited from earlier work. The source holds these as a separate data set.
The conditions of data set [7]: stroke treatment; cited from earlier work.
The conditions of data set [8]: rats; cited from earlier work.
The conditions of data set [9]: administered post-ischemia in animals; cited from earlier work.
For data set [10] the following is noted: in vivo; cited from earlier work. The source holds these as a separate data set.
For data set [11] the following is noted: in vivo; cited from earlier work. The source holds these as a separate data set.
In data set [12] the test system is platelet aggregation. The following applies: cited from earlier work.
For data set [13] the following is noted: ischemic baboons; cited from earlier work.

Regarding `C[C@]12N[C@H](Cc3ccccc31)c1ccccc12` [MK-801], the adverse reactions result in data set [1] was “respiratory depression and elevated CO2 level; also recorded: behavioral changes, including a psychotic-like response and diminished cognitive and mental status”. Moreover, the “effect on blood pressure” value in [2] and in data set [3] was “increases blood pressure” throughout.
In the case of `Fc1ccc(C(c2ccc(F)cc2)N2CCN(C/C=C/c3ccccc3)CC2)cc1` [Flunarizine], in data set [4], the “effect on cerebral blood flow” value is “no increase in cerebral blood flow or improvement in cerebral metabolism”.
Consider `CC(=O)CCCCn1c(=O)c2c(ncn2C)n(C)c1=O` [Pentoxifylline], for which the “effect on blood viscosity / red blood cell flexibility” value in data set [5] was “improves the oxygenation of ischemic tissues by decreasing blood viscosity”. Further, the adverse effects result in data set [6] was “chest pain, dyspepsia, nausea, vomiting, dizziness, headache, tremor, anxiety, blurred vision, malaise, and others”.
For the molecule `C[C@@H]1C[C@H]2[C@@H]3CCC4=CC(=O)C=C[C@]4(C)[C@@]3(F)[C@@H](O)C[C@]2(C)[C@@]1(O)C(=O)CO` [dexamethasone], the “effect on neurologic outcome, morbidity or mortality in stroke” value in [7] is “no difference in morbidity or mortality”. The adverse effects result in [6] is listed as “serious exacerbations of diabetes mellitus”.
`COC(=O)C1=C(C)NC(C)=C(C(=O)OC)C1c1ccccc1[N+](=O)[O-]` [Nifedipine]: the “effect on cerebral blood flow” value in [8] is “antagonize cerebral blood flow”.
As for `CN(C)CCCSc1ccccc1NC(=O)/C=C/c1ccccc1` [cinanserin], in data set [9], the “effect on neurologic function” value is on record as “help preserve neurologic function”.
Regarding `CCCCC[C@H](O)/C=C/[C@@H]1[C@H]2C/C(=C/CCCC(=O)O)O[C@H]2C[C@H]1O` [PGI2, prostaglandin I2], the half life in data set [10] is 3 min. Also, in [6], the adverse effects result was “tendency to precipitate hypotension”.
Take `CN1CCC(=C2c3ccccc3C=Cc3ccccc32)CC1` [cyproheptadine]: the “effect on neurologic function” value in [9] is on record as “help preserve neurologic function”.
On to `CN1C(=O)CN=C(c2ccccc2)c2cc(Cl)ccc21` [Diazepam, 7-Chloro-1,3-dihydro-1-methyl-5-phenyl-2H-1,4-benzodiazepin-2-one], for which the “effect in cerebral ischemia” value in data set [11] was “somewhat effective in treatment of cerebral ischemia”.
Take `COc1ccc2c(c1)c(CC(=O)O)c(C)n2C(=O)c1ccc(Cl)cc1` [indomethacin]: the “effect on platelet aggregation” value in [12] is on record as “inhibit platelet aggregation”. For the same molecule, the “edema, cerebral blood flow and carbon dioxide reactivity” value in [13] was “significantly increase edema and decrease cerebral blood flow and carbon dioxide reactivity”.
As for `C[C@]12CCC(=O)C=C1CC[C@@H]1[C@@H]2C(=O)C[C@@]2(C)[C@H]1CC[C@]2(O)C(=O)CO` [cortisone], in data set [7], the “effect on neurologic outcome, morbidity or mortality in stroke” value was “no difference in morbidity or mortality”.
